In the experiment the target is T1, abc isoform of human TMEM16A channel expressed in CHO cells (Homo sapiens, UniProt Q5XXA6, DEL476-501).
T1 construct: expressed in transfected cells; host or cells: CHO cells, doxycycline-inducible expression under Blasticidin/Zeocin selection
T1 sequence (Q5XXA6 with tags, fused parts or gaps isoform Q5XXA6-5 DEL539-564): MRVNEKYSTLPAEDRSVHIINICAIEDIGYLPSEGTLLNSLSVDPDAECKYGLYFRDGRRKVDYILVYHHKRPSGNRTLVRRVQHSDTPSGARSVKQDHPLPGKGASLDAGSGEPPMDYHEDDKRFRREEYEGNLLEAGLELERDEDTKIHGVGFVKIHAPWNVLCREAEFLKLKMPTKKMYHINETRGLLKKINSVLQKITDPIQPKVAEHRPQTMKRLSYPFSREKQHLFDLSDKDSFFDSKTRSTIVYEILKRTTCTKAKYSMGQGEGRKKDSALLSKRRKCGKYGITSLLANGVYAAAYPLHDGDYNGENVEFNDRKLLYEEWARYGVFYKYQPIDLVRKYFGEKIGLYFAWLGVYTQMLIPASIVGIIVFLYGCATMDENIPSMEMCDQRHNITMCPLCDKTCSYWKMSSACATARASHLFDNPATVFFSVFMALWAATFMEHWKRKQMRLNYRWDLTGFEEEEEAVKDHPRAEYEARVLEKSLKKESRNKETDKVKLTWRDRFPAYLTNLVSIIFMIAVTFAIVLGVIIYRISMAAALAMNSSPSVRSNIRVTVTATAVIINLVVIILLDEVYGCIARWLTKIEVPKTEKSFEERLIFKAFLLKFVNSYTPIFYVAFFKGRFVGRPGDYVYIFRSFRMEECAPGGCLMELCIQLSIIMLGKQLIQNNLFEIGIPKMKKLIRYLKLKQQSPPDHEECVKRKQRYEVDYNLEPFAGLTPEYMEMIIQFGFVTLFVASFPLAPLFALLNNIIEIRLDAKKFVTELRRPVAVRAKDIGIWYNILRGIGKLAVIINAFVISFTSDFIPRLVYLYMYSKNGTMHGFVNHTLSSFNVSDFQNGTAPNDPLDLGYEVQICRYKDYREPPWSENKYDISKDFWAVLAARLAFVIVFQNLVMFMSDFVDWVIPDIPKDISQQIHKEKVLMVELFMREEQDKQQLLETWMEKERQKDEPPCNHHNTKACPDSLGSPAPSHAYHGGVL
In words: Automated patch clamping (QPatch) assay to measure TMEM16A activity in whole-cell. The following applies: for EC50: CHO cells expressing human TMEM16A (abc), whole-cell automated patch clamp, Hill fit, read-out: TMEM16A QPATCH assay EC50 V3 EC50; for Emax: CHO, maximum current at highest dose relative to reference potentiator at maximal concentration (upper limit) and vehicle (lower limit), read-out: TMEM16A QPATCH assay EC50 V3 Assay Window (% TMEM16A max activation). The experiment is classed as cell-based. Summed up:
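CHO cells with doxycycline-induced (1 μg/mL, 18-24 h) human TMEM16A abc isoform; QPatch whole-cell recording, hold −70 mV, step +70 mV 1500 ms, then −90 to +70 mV ramp. Compounds in 0.3% DMSO; EC50 by Hill fit; % max activation relative to vehicle baseline and reference potentiator maximum.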
(In general: In patch-clamp work, channel activity is measured electrically.)

The values below come from patent publication US20220306617A1, “SUBSTITUTED 1,3-PHENYL HETEROARYL DERIVATIVES AND THEIR USE IN THE TREATMENT OF DISEASE” (NOVARTIS AG, priority 2019, published 2022).

Usually EC50 stands for the midpoint of the concentration-response curve.

SMILES strings stand for the structures.

Consider `CCOC(=O)CCCCCn1nc(-c2cccc(-c3ncc(C(=O)NC(CC)CC)o3)c2)nc1C(=O)NC(CC)CC` [Example 15.11], for which the EC50 was 440 nM and the Emax was found to be 88%.
For `CCC(CC)NC(=O)c1cnc(-c2cccc(-c3nc(C(=O)NC(CC)CC)n(CCO)n3)c2)o1` [Example 16.0, 2-(3-(1-(2-Hydroxyethyl)-5-(Pentan-3-Ylcarbamoyl)-1H-1,2,4-Triazol-3-Yl)Phenyl)-N-(Pentan-3-Yl)Oxazole-5-Carboxamide], in that order: 130 nM and 177%.
Taken in the same sequence, the figures for `C[C@H](NC(=O)c1cnc(-c2cccc(-c3nc(C(=O)N[C@@H](C)C4CC4)n(CCO)n3)c2)o1)C1CC1` [Example 16.1, N-((S)-1-Cyclopropylethyl)-2-(3-(5-(((S)-1-Cyclopropylethyl)Carbamoyl)-1-(2-Hydroxyethyl)-1H-1,2,4-Triazol-3-Yl)Phenyl)Oxazole-5-Carboxamide] were 460 nM and 102%.
Taken in the same sequence, the figures for `C[C@H](NC(=O)c1cnc(-c2cccc(-c3nc(C(=O)N[C@@H](C)C4CC4)n(CCCO)n3)c2)o1)C1CC1` [Example 16.2, N-((S)-1-Cyclopropylethyl)-2-(3-(5-(((S)-1-Cyclopropylethyl)Carbamoyl)-1-(3-Hydroxypropyl)-1H-1,2,4-Triazol-3-Yl)Phenyl)Oxazole-5-Carboxamide] were 290 nM and 140%.
With `CCC(CC)NC(=O)c1cnc(-c2cccc(-c3cn(CC(O)C(F)(F)F)c(C(=O)N[C@@H](C)C4CC4)n3)c2)o1` (stereo partly drawn) [Example 17.0, 2-(3-(2-(((S)-1-Cyclopropylethyl)Carbamoyl)-1-(3,3,3-Trifluoro-2-Hydroxypropyl)-1H-Imidazol-4-Yl)Phenyl)-N-(Pentan-3-Yl)Oxazole-5-Carboxamide], the concentration giving a half-maximal response (EC50) is 790 nM and the Emax amounted to 186%.
Taken in the same sequence, the figures for `CCC(CC)NC(=O)c1cnc(-c2cccc(-c3ncc(C(=O)NC(CC)CC)o3)c2)o1` [Example 18.0, 2,2′-(1,3-Phenylene)Bis(N-(Pentan-3-Yl)Oxazole-5-Carboxamide)] were 140 nM and 97%.
